Test results taken from patent US7772216B2, “Protein kinase and phosphatase inhibitors and methods for designing them” (The Research Foundation of State University of New York, priority 2001, dated 2010).
Read-outs that look alike come from different tables or passages of the source.

How the values were obtained:
[1] = SCID, mouse, in vivo, ip
Procedure: These compounds were administered to SCID mice by intraperitoneal administration in tween80:EtOH.

EGFRTK = EGFRTK (Homo sapiens, UniProt P00533); assay: EGFRTK inhibition; format: biochemical; details: % inhibition at 10 micromolar compound
Description: (§1) Blanks for a particular enzyme indicate that inhibition was not found.

PTP-1B = molecular target: T1, PTP-1B (Homo sapiens, UniProt P18031); assay: PTP-1B inhibition; format: biochemical; details: % inhibition at 10 micromolar compound
T1 sequence (P18031 1-435): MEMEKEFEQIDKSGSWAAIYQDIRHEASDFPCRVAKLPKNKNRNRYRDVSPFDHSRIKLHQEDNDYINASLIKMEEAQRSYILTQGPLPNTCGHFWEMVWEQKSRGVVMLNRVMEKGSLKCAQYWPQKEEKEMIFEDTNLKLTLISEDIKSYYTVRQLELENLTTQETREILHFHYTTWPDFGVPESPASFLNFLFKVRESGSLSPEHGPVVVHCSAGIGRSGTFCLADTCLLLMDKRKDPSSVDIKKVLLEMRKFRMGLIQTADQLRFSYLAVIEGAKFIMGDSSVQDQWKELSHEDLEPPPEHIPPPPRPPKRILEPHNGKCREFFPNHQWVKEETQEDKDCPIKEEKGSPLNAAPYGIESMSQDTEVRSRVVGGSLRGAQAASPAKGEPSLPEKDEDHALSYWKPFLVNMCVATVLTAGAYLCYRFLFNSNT
Description: as §1

p56 lck [2] = molecular target: T2, p56 lck (Homo sapiens, UniProt P06239); assay: p56 lck inhibition; format: biochemical; details: % inhibition at 10 micromolar compound
T2 sequence (P06239 whole entry, species assumed): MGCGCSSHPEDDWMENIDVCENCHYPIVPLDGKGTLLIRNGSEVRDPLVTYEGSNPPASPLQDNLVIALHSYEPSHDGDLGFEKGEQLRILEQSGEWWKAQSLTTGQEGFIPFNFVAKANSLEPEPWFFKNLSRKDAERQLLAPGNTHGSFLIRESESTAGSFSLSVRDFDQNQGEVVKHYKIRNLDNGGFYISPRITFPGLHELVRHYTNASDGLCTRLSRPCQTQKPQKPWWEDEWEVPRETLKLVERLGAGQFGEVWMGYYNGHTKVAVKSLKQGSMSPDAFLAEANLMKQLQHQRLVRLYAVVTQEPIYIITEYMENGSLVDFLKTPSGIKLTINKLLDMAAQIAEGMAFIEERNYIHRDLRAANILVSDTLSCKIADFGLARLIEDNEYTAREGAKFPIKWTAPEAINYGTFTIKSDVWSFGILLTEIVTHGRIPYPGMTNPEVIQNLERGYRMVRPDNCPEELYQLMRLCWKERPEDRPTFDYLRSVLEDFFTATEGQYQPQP
Description: as §1

pp60^c-src [3] = molecular target: T3, pp60^c-src (Homo sapiens, UniProt P12931); assay: Cellular Mimetic Src assay (RR-SRC phosphorylation)
Target sequence in this assay (P12931 whole entry): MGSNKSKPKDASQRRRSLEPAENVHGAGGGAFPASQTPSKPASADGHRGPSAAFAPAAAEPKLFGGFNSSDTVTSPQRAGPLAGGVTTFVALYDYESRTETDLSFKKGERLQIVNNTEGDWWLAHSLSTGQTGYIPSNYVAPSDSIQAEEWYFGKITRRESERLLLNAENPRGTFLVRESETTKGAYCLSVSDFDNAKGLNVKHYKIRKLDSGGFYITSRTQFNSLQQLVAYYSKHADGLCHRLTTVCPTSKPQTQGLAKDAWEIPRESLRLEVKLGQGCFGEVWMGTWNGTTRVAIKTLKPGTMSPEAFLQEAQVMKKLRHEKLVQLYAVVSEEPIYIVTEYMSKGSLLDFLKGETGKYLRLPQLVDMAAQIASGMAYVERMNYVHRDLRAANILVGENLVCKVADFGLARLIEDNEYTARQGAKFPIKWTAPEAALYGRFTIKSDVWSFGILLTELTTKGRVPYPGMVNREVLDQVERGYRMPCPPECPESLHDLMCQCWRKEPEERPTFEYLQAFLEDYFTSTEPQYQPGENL

NRK cells = assay: Normal rat kidney (NRK) cell growth; format: cell-based
Procedure: (§2) Active Src inhibitors can be studied in a set of side-by-side cell-based assays using normal rat kidney (NRK) cells and a temperature-sensitive pp60^v-Src transformant of this cell line (LA25). The LA25 transformant engages in anchorage- and serum-independent growth at the “permissive” temperature of 33° C. due to activation of pp60^v-src but not at the “non-permissive” temperature of 40° C. at which pp60^v-src is not activated (Li et al., 1996). The use of this pair of closely related cell lines for testing the Src inhibitors at both the permissive and non-permissive temperatures allows one to determine if a given Src inhibitor is blocking cell growth due to specific blockade of the Src signaling pathway, by a different mechanism or by a general cytotoxic effect.
(§3) As shown in this graph the growth of the LA25 cells at the permissive temperature of 33° C. is inhibited by ca. 50% at a 25 μM concentration of 43-meta relative to the LA25 cell growth at the non-permissive 40° C. as a control. […] Since the 43-meta solutions were prepared with a low concentration of DMSO for solubilization, a DMSO control was also run at the same concentration.

PC-3 = assay: NIH 60-tumor cell panel, PC-3; format: cell-based; details: Homo sapiens, NIH prostate cancer cell line, read-out: growth inhibition IC50, PC-3
Description: The initial non-peptide Src inhibitors have also shown very encouraging results in four different series of cell culture assays. 1) In the NIH 60-tumor cell panel assay, broad activity (as one would expect for a Src inhibitor) was seen against the tumor cell lines, including the prostate lines. […] 3) The Src inhibitors were compared to the cancer drugs etoposide, taxol, doxorubicin and cisplatin in ovarian tumors from three different patients and an abdominal carcinoma from another patient. […] 5) Two of the Src inhibitors were also tested for inhibition of ts v-Src stimulated LA25 cell growth. […] 6) Two of the Src inhibitors were also tested for inhibition of normal rat kidney cell growth. The results are shown in FIG. 16D and illustrate that the inhibitors are cytoprotective for normal cells.

LA25 cells = assay: LA25 (ts pp60^v-src transformed NRK) cell growth; format: cell-based, rat
Procedure: as §2, §3

p56 lck [4] = molecular target: T2, p56 lck; details: analyzed with the tyrosine kinase p56^lck; cited from earlier work
pp60^c-src [5] = molecular target: T3, pp60^c-src; details: literature value, cited from earlier work
Target sequence in this assay (P12931 whole entry, species assumed): as the sequence (P12931 whole entry) above

[6] = read-out: % Inhibition of 2 mM RR-src at Inhibitor Concentration (100 μM)

Sequence of EGFRTK (P00533 25-1210): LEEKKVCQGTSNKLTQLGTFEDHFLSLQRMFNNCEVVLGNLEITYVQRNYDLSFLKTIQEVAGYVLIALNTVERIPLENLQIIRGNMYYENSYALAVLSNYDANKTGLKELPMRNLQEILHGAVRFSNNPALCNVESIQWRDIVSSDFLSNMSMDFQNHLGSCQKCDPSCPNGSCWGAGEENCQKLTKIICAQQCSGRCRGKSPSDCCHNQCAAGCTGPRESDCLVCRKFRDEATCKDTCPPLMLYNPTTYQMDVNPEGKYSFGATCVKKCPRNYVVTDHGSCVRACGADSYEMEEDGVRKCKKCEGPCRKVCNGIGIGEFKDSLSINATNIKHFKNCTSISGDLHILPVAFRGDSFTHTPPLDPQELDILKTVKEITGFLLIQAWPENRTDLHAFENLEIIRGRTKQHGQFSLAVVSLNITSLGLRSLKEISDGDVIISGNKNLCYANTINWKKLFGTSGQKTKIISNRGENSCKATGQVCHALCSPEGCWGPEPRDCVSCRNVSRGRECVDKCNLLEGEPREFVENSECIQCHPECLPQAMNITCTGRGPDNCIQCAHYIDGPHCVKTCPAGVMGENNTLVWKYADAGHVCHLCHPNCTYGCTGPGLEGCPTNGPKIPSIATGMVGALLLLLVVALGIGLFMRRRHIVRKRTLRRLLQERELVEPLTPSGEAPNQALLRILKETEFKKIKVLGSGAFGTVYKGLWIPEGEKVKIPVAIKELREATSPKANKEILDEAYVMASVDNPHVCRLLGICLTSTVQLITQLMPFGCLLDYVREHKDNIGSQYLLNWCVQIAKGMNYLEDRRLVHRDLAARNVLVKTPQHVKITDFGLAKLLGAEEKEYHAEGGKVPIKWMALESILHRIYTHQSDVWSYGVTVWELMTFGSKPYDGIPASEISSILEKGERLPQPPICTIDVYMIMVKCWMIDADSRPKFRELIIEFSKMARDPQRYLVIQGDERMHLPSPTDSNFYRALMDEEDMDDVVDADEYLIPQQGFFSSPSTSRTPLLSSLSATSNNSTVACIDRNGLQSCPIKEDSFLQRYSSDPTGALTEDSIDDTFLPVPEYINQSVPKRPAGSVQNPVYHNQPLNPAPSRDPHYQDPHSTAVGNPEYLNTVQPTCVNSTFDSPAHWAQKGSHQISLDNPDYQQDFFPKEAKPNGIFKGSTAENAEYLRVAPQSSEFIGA

O=C(NCc1cccc(O)c1)c1cc2cc(F)ccc2[nH]1 [Compound 1a]
toxicity in mice (weight loss) [1]: less toxic in mice than compound 2k from Example 4

COc1ccc(NC(=O)c2cc3cc(F)ccc3[nH]2)cc1CO [Compound 1cccc]
EGFRTK @ 10 μm (EGFRTK): 19% | PTP-1B @ 10 μm (PTP-1B): 20%

O=C(Nc1ccccc1O)c1cc2cc(F)ccc2[nH]1 [Compound 1n]
p56 LcK @ 10 μm (p56 lck [2]): 12%

O=C(NCc1ccc(CO)cc1)c1cc2cc(F)ccc2[nH]1 [Compound 1oooo]
p56 LcK @ 10 μm (p56 lck [2]): 10% | EGFRTK @ 10 μm (EGFRTK): 33%

O=C(Nc1cc(O)cc(O)c1)c1cc2cc(F)ccc2[nH]1 [Compound 1r]
p56 LcK @ 10 μm (p56 lck [2]): 11%

COc1cc(OC)c(CNC(=O)c2cc3cc(F)ccc3[nH]2)c(OC)c1 [Compound 1rr]
p56 LcK @ 10 μm (p56 lck [2]): 12%

O=C(NCc1cccc(F)c1)c1cc2cc(F)ccc2[nH]1 [Compound 1z]
melting point: 239 to 241 °C | EGFRTK @ 10 μm (EGFRTK): 26%

O=C(NCc1ccc(Cl)cc1)c1[nH]c2ccc(F)cc2c1-c1ccccc1 [Compound 2gg]
PTP-1B @ 10 μm (PTP-1B): 12%

O=C(Nc1cccc(O)c1)c1cc2ccc(O)cc2cc1O [Compound 43-meta]
IC50 (pp60^c-src [3]): 18 µM | Ki (pp60^c-src [3]; K1, Table V): 10 µM | inhibition at 100 µM (pp60^c-src [3]; [6]): 89% | inhibition of normal rat kidney (parent non-transformed) cell growth (NRK cells): without inhibiting the normal growth of the parent non-transformed cells | cell toxicity (basal growth of NRK and LA25 cells) (NRK cells; concentration increased up to 400 μM): lack of cell toxicity | IC50 (PC-3): 19 µM | inhibition of v-Src induced LA25 cell growth (LA25 cells): specifically blocked the v-Src induced cell growth | inhibition at 25 µM (LA25 cells; Rattus norvegicus, NRK, 25 μM, permissive 33° C. relative to non-permissive 40° C.): ~50% | IC50 (LA25 cells; Rattus norvegicus, NRK, read-out: IC50 for blocking pp60^v-src stimulated cell proliferation): ~25 µM

O=C(Nc1cccc(O)c1)c1cc2cccc(O)c2cc1O [Compound 45]
IC50 (pp60^c-src [3]): 170 µM | mode of inhibition with respect to ATP (pp60^c-src [3]; increasing ATP concentration up to 1 mM): 45 NON-ATP | inhibition at 100 µM (pp60^c-src [3]; [6]): 51% | inhibition of normal rat kidney (parent non-transformed) cell growth (NRK cells): without inhibiting the normal growth of the parent non-transformed cells | IC50 (PC-3): 15 µM | inhibition of v-Src induced LA25 cell growth (LA25 cells): specifically blocked the v-Src induced cell growth

Cc1cc(O)c2c(c1)C(=O)c1cc(O)cc(O)c1C2=O [Emodin, reference compound]
inhibition at 100 µM (pp60^c-src [3]; read-out: % Inhibition at 100 μM (std. dev.)): 22% | mode of inhibition with respect to ATP (p56 lck [4]): ATP-competitive

CCOc1cc(/C=C(\C#N)C(N)=O)cc(CSc2ccccc2)c1O [ST-638, reference compound]
% Inhibition at 100 μM (std. dev.) (pp60^c-src [3]; Table IX, hydroxynaphthalene derivatives and published inhibitors): 37 (+/−5) % | IC50 (pp60^c-src [5]; Table IX, read-out: IC50 (μM), Lit): 18 µM

CCOc1cc(/C=C(\C#N)C(N)=O)cc(CSc2ccccc2)c1O [drawing 65, ST 638, reference compound]
inhibition at 100 µM (pp60^c-src [3]; [6]): 37% | IC50 (pp60^c-src [5]; Table V, read-out: Lit. IC50): 18 µM
